Data from US20130012485A1, “ORGANIC COMPOUNDS” (priority 2006, published 2013).

Molecular target: T1, human DPP-IV (Homo sapiens, UniProt P27487)
T1 construct: Human DPP-IV consisting of amino acids 39 to 766 followed by a C-terminal Streptavidin-tag; Streptavidin-tag (C); made in house
Assay: Activity assay: inhibitory activity to human DPP-IV, fluorogenic substrate H-Gly-Pro-AMC
Assay type: biochemical
Conditions: H-Gly-Pro-AMC 10 μM, room temperature, monitored for 1 hour
Experimental: Various Example compounds were tested for their inhibitory activity to human DPP-IV.
Human DPP-IV consisting of amino acids 39 to 766 followed by a C-terminal Streptavidin-tag was expressed using the baculovirus system and purified to >80% purity. The enzyme was stored in 25 mM Tris buffer, pH 9.0, containing 300 mM NaCl at −80° C.
The fluorogenic substrates H-Gly-Pro-AMC was purchased from Bachem AG (Bubendorf, Switzerland). The substrate was kept as a 5 mM stock solution in DMSO at −20° C. All other chemicals were purchased from Sigma (Buchs, Switzerland).
The assay buffer for the DPP-IV reaction was 25 mM Tris/HCl, pH 7.5, containing 140 mM NaCl, 10 mM KCl and 0.05% (w/v) CHAPS.
The test compounds were dissolved in 90% DMSO/10% H2O (v/v). Serial dilutions of the compounds from 3 mM to 0.03 μM in 90% DMSO/10% H2O (v/v) followed by a 1:33.3 dilution in assay buffer was done in 96-well polypropylene plates using a CyBio Dilus 8-channel pipettor (CyBio AG, Jena, Germany) with tip change after each pipetting step. The compound solutions as well as the substrate and the enzyme solutions were transferred to the assay plates (384-well black Cliniplate; cat. no. 95040020 Labsystems Oy, Finland) by means of a CyBi-Well 96-channel pipettor (CyBio AG, Jena, Germany).
Enzyme kinetics were measured by mixing 10 μl of a 3-fold concentrated substrate solution in assay buffer (final substrate concentration was 10 μM) with 10 μl of the corresponding compound solution. The reactions were initiated by addition of 10 μl of a 3-fold concentrated solution of the enzyme in assay buffer. Final enzyme (active site) concentrations in the assay was […] for DPP-IV. Fluorescence product (AMC) formation was monitored for 1 hour at room temperature at 35 second intervals by measuring the fluorescence emission at 500 nm using an exitation wavelength of 350 nm in a TECAN Ultra fluorescence reader (TECAN, Maennedorf, Switzerland). The fluorescence in each well was excited by one flash per measurement. The Origin software package (Origin 7.5 Mircocal, Northampton, Mass., USA) was used to generate all graphs and to perform the IC50 calculations.

T1 sequence (P27487 39-766): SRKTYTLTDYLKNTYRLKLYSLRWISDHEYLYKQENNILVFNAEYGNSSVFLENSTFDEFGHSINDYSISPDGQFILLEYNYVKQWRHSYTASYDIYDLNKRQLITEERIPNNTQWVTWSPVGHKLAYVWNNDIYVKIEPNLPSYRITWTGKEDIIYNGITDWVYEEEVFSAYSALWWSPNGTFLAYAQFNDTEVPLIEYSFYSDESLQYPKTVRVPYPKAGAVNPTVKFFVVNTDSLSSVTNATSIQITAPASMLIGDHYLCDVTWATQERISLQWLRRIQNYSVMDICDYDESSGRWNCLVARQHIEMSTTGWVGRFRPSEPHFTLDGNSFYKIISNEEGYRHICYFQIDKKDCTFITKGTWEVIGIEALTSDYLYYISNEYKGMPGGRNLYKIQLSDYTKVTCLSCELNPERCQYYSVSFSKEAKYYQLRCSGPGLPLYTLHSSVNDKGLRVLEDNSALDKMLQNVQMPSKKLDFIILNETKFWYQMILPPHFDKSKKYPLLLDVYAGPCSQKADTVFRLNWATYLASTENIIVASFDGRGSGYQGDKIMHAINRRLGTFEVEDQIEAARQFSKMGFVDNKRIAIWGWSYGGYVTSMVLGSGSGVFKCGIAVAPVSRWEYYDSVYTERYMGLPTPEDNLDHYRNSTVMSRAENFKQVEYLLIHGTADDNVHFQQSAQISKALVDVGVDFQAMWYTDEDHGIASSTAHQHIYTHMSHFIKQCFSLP

Structure (SMILES)	IC50 [nM]
Cc1n[nH]c(C)c1CCn1cc(-c2ccc(=O)n([C@H]3CC[C@](CN)(c4cccc(Cl)c4)CC3)n2)nn1	850
NC[C@]1(c2cccc(Cl)c2)CC[C@H](n2nc(-c3cnn(Cc4ccccc4)c3)ccc2=O)CC1	500
Cc1ccnc([C@]2(CN)CC[C@@H](N3CCn4c(nnc4C(F)(F)F)C3)CC2)c1	250
NC[C@]1(c2cccc(Cl)c2)CC[C@H](N(Cc2ccn[nH]2)C(=O)c2cccnc2)CC1	450
Cc1cccc(C2(CN)CCC(N3CCn4c(nnc4C(F)(F)F)C3)C2)c1 (stereo not drawn)	5050
CCOC(=O)N1CCC(N2CC(=O)N([C@H]3CC[C@](CN)(c4cccc(Cl)c4)CC3)CC2=O)CC1	100
CS(=O)(=O)c1ccc(CN[C@H]2CC[C@](CN)(c3cccc(Cl)c3)CC2)cc1	400
NC[C@]1(c2cccc(Cl)c2)CC[C@H](N2C(=O)OC[C@H]2Cc2ccccc2)CC1	200

Further molecules by falling IC50, results first:

IC50 [nM]	Structure (SMILES)
11600	Cc1nc(=O)c2c([nH]1)CCC(CN)(c1cccc(Cl)c1)C2 (stereo not drawn)
850	CC1CC(=O)N([C@]2(CN)CC[C@@H](N3CCn4c(nnc4C(F)(F)F)C3)CC2)C1 (stereo partly drawn)
200	NCC1(c2cccc(Cl)c2)CCC(Oc2ccc(Br)cn2)CC1 (stereo not drawn)
50	Cn1ccc2cc(C(=O)N[C@H]3CC[C@](CN)(c4cccc(Cl)c4)CC3)ccc21
